These results are taken from US10023570B2 (Array BioPharma, Inc., priority 2015, dated 2018).

Structures are written as SMILES. Where a name gives a salt, the structure may show the parent alone.

The target in this experiment is human KDR protein in HEK-293 cells (Homo sapiens (Human), UniProt P35968). Description: KDR Cell Assay (phospho-KDR in HEK-293 cells expressing inducible KDR). The class given is cell-based. Conditions: pKDR Cell HEK 10% FBS IC50, HEK-293 cells expressing inducible KDR, VEGF stimulated, 10% FBS. An outline of the steps:
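HEK-293 cells with inducible human KDR were treated with compound for 1 h in DMEM (0.25% DMSO final), then lysed. Phospho-KDR was quantified by Meso Scale immunoassay, expressed as percent of control, and IC50 taken where a 4-parameter logistic fit crossed 50 POC.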

Chain of human KDR protein in HEK-293 cells (P35968 20-1356): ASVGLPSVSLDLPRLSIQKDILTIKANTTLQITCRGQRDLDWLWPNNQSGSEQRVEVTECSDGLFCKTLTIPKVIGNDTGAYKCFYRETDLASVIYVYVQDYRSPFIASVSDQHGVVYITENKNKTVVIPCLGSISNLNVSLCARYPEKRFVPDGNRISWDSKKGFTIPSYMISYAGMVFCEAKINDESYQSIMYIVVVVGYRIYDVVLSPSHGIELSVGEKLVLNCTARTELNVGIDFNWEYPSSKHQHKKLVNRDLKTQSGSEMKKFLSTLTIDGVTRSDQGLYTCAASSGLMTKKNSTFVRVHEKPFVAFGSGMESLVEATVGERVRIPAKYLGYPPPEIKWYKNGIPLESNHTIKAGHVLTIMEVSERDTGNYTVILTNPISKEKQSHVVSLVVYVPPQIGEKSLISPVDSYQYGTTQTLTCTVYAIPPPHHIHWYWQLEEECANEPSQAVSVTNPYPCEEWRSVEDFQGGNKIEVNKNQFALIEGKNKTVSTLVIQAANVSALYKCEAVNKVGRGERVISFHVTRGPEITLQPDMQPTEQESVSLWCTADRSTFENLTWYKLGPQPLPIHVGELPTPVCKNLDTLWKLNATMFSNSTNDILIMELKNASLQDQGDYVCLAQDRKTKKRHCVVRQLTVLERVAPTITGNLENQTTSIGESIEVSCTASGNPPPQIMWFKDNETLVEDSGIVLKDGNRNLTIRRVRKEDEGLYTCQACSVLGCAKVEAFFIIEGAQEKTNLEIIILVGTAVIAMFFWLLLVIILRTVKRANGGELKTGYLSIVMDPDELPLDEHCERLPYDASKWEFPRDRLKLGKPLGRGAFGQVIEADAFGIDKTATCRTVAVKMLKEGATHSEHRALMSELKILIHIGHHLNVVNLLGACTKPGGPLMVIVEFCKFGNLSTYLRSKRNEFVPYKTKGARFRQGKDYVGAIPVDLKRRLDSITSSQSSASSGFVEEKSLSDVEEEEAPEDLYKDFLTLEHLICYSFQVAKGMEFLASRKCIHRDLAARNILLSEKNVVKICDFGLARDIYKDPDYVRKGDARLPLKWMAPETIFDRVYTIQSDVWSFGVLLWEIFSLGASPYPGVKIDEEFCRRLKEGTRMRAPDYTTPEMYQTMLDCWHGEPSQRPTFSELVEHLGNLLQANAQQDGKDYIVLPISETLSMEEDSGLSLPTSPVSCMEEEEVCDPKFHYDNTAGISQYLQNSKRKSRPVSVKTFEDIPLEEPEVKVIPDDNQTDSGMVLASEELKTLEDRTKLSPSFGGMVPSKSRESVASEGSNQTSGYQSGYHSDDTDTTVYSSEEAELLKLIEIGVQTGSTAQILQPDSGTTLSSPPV

As to `Cn1cc(-c2cc(-c3ccc(N4CCN(C(=O)OC(C)(C)C)CC4)cc3)c3c(C#N)cnn3c2)cn1` [Example 290, tert-Butyl 4-(4-(3-cyano-6-(1-methyl-1H-pyrazol-4-yl)pyrazolo[1,5-a]pyridin-4-yl)phenyl)piperazine-1-carboxylate], half-maximal inhibition (IC50) required 3440 nM. To `Cn1cc(-c2cc(-c3ccc(N4CCNCC4)cc3)c3c(C#N)cnn3c2)cn1` [Example 291, 6-(1-methyl-1H-pyrazol-4-yl)-4-(4-(piperazin-1-yl)phenyl)pyrazolo[1,5-a]pyridine-3-carbonitrile dihydrochloride] belongs 918 nM; to `COCC(=O)N1CCN(c2ccc(-c3cc(-c4cnn(C)c4)cn4ncc(C#N)c34)cc2)CC1` [Example 292, 4-(4-(4-(2-methoxyacetyl)piperazin-1-yl)phenyl)-6-(1-methyl-1H-pyrazol-4-yl)pyrazolo[1,5-a]pyridine-3-carbonitrile], 1080 nM; to `Cn1cc(-c2cc(-c3ccc(N4CCN(C(=O)CO)CC4)cc3)c3c(C#N)cnn3c2)cn1` [Example 293, 4-(4-(4-(2-hydroxyacetyl)piperazin-1-yl)phenyl)-6-(1-methyl-1H-pyrazol-4-yl)pyrazolo[1,5-a]pyridine-3-carbonitrile hydrochloride], 532 nM. To `Cn1cc(-c2cc(-c3ccc(N4CCN(C(=O)CC(C)(C)C)CC4)cc3)c3c(C#N)cnn3c2)cn1` [Example 294, 4-(4-(4-(3,3-dimethylbutanoyl)piperazin-1-yl)phenyl)-6-(1-methyl-1H-pyrazol-4-yl)pyrazolo[1,5-a]pyridine-3-carbonitrile] belongs 2100 nM; to `CC(=O)N1CCN(c2ccc(-c3cc(-c4cnn(C)c4)cn4ncc(C#N)c34)cc2)CC1` [Example 295, 4-(4-(4-acetylpiperazin-1-yl)phenyl)-6-(1-methyl-1H-pyrazol-4-yl)pyrazolo[1,5-a]pyridine-3-carbonitrile], 720 nM. For `CN(C)CC(=O)N1CCN(c2ccc(-c3cc(-c4cnn(C)c4)cn4ncc(C#N)c34)cc2)CC1` [Example 296, 4-(4-(4-(2-(dimethylamino)acetyl)piperazin-1-yl)phenyl)-6-(1-methyl-1H-pyrazol-4-yl)pyrazolo[1,5-a]pyridine-3-carbonitrile] the value was 2350 nM; for `Cn1cc(-c2cc(-c3ccc(N4CCN(S(C)(=O)=O)CC4)cc3)c3c(C#N)cnn3c2)cn1` [Example 297, 6-(1-methyl-1H-pyrazol-4-yl)-4-(4-(4-(methylsulfonyl)piperazin-1-yl)phenyl)pyrazolo[1,5-a]pyridine-3-carbonitrile], 189 nM; for `COC(=O)N1CCN(c2ccc(-c3cc(-c4cnn(C)c4)cn4ncc(C#N)c34)cc2)CC1` [Example 298, Methyl 4-(4-(3-cyano-6-(1-methyl-1H-pyrazol-4-yl)pyrazolo[1,5-a]pyridin-4-yl)phenyl)piperazine-1-carboxylate], 1830 nM. Regarding `CNS(=O)(=O)N1CCN(c2ccc(-c3cc(-c4cnn(C)c4)cn4ncc(C#N)c34)cc2)CC1` [Example 299, 4-(4-(3-cyano-6-(1-methyl-1H-pyrazol-4-yl)pyrazolo[1,5-a]pyridin-4-yl)phenyl)-N-methylpiperazine-1-sulfonamide], the IC50 (as a rule, the midpoint of a concentration-inhibition curve) came to 151 nM. To `Cn1cc(-c2cc(-c3ccc(C4CCNCC4)cc3)c3c(C#N)cnn3c2)cn1` [Example 301, 6-(1-methyl-1H-pyrazol-4-yl)-4-(4-(piperidin-4-yl)phenyl)pyrazolo[1,5-a]pyridine-3-carbonitrile dihydrochloride] belongs 158 nM; to `Cn1cc(-c2cc(-c3ccc(C4CCN(C(=O)CC(C)(C)C)CC4)cc3)c3c(C#N)cnn3c2)cn1` [Example 302, 4-(4-(1-(3,3-dimethylbutanoyl)piperidin-4-yl)phenyl)-6-(1-methyl-1H-pyrazol-4-yl)pyrazolo[1,5-a]pyridine-3-carbonitrile], 2990 nM; to `C[C@H](O)Cn1cc(-c2cc(-c3ccc(N4CCN(C(=O)CC(C)(C)C)CC4)cc3)c3c(C#N)cnn3c2)cn1` [Example 304, (S)-4-(4-(4-(3,3-dimethylbutanoyl)piperazin-1-yl)phenyl)-6-(1-(2-hydroxypropyl)-1H-pyrazol-4-yl)pyrazolo[1,5-a]pyridine-3-carbonitrile], 1610 nM. To `C[C@@H](O)Cn1cc(-c2cc(-c3ccc(N4CCN(C(=O)CC(C)(C)C)CC4)cc3)c3c(C#N)cnn3c2)cn1` [Example 305, (R)-4-(4-(4-(3,3-dimethylbutanoyl)piperazin-1-yl)phenyl)-6-(1-(2-hydroxypropyl)-1H-pyrazol-4-yl)pyrazolo[1,5-a]pyridine-3-carbonitrile] belongs 1490 nM; to `C[C@@H](CO)Cn1cc(-c2cc(-c3ccc(N4CCN(C(=O)CC(C)(C)C)CC4)cc3)c3c(C#N)cnn3c2)cn1` [Example 306, (R)-4-(4-(4-(3,3-dimethylbutanoyl)piperazin-1-yl)phenyl)-6-(1-(3-hydroxy-2-methylpropyl)-1H-pyrazol-4-yl)pyrazolo[1,5-a]pyridine-3-carbonitrile], 880 nM. For `C[C@H](CO)Cn1cc(-c2cc(-c3ccc(N4CCN(C(=O)CC(C)(C)C)CC4)cc3)c3c(C#N)cnn3c2)cn1` [Example 307, (S)-4-(4-(4-(3,3-dimethylbutanoyl)piperazin-1-yl)phenyl)-6-(1-(3-hydroxy-2-methylpropyl)-1H-pyrazol-4-yl)pyrazolo[1,5-a]pyridine-3-carbonitrile] the value was 864 nM; for `Cn1ccc(-c2cc(-c3ccc(N4CCN(C(=O)CC(C)(C)C)CC4)cc3)c3c(C#N)cnn3c2)n1` [Example 309, 4-(4-(4-(3,3-dimethylbutanoyl)piperazin-1-yl)phenyl)-6-(1-methyl-1H-pyrazol-3-yl)pyrazolo[1,5-a]pyridine-3-carbonitrile], 4780 nM; for `Cc1cc(-c2cc(-c3ccc(N4CCN(C(=O)CC(C)(C)C)CC4)cc3)c3c(C#N)cnn3c2)n[nH]1` [Example 310, 4-(4-(4-(3,3-dimethylbutanoyl)piperazin-1-yl)phenyl)-6-(5-methyl-1H-pyrazol-3-yl)pyrazolo[1,5-a]pyridine-3-carbonitrile], 1760 nM. The molecule `Cn1cc(-c2cc(-c3ccc(N4CCN(C(=O)[C@H](O)c5ccccc5)CC4)nc3)c3ccnn3c2)cn1` [Example 313, (R)-2-hydroxy-1-(4-(5-(6-(1-methyl-1H-pyrazol-4-yl)pyrazolo[1,5-a]pyridin-4-yl)pyridin-2-yl)piperazin-1-yl)-2-phenylethanone] registered a concentration for half-maximal inhibition (IC50) of at least 5000 nM. To `Cn1cc(-c2cc(-c3ccc(N4CCN(C(=O)C(O)c5ccc(F)cc5F)CC4)nc3)c3ccnn3c2)cn1` (stereo not shown) [Example 317, 2-(2,4-difluorophenyl)-2-hydroxy-1-(4-(5-(6-(1-methyl-1H-pyrazol-4-yl)pyrazolo[1,5-a]pyridin-4-yl)pyridin-2-yl)piperazin-1-yl)ethanone] belongs at least 5000 nM; to `Cn1cc(-c2cc(-c3ccc(N4CCN(C(=O)[C@H](O)c5ccccc5Cl)CC4)nc3)c3ccnn3c2)cn1` [Example 320, (R)-2-(2-chlorophenyl)-2-hydroxy-1-(4-(5-(6-(1-methyl-1H-pyrazol-4-yl)pyrazolo[1,5-a]pyridin-4-yl)pyridin-2-yl)piperazin-1-yl)ethanone], at least 5000 nM. Regarding `Cn1cc(-c2cc(-c3ccc(N4CCN(C(=O)[C@H](O)c5cccc(Cl)c5)CC4)nc3)c3ccnn3c2)cn1` [Example 322, (R)-2-(3-chlorophenyl)-2-hydroxy-1-(4-(5-(6-(1-methyl-1H-pyrazol-4-yl)pyrazolo[1,5-a]pyridin-4-yl)pyridin-2-yl)piperazin-1-yl)ethanone], the half-maximal inhibitory concentration (IC50) was 4860 nM.

The molecule `Cn1cc(-c2cc(-c3ccc(N4CCN(C(=O)[C@H](O)c5ccccc5)CC4)nc3)c3c(Cl)cnn3c2)cn1` [Example 327, (R)-1-(4-(5-(3-chloro-6-(1-methyl-1H-pyrazol-4-yl)pyrazolo[1,5-a]pyridin-4-yl)pyridin-2-yl)piperazin-1-yl)-2-hydroxy-2-phenylethanone] yielded an IC50 of 606 nM. To `CN(C)CC(=O)N1CC2CCC(C1)N2c1ccc(-c2cc(-c3cnn(C)c3)cn3ncc(Cl)c23)cn1` [Example 336, 1-(8-(5-(3-chloro-6-(1-methyl-1H-pyrazol-4-yl)pyrazolo[1,5-a]pyridin-4-yl)pyridin-2-yl)-3,8-diazabicyclo[3.2.1]octan-3-yl)-2-(dimethylamino)ethanone] belongs 614 nM; to `Cn1cc(-c2cc(-c3ccc(N4CCCC4)nc3)c3c(Cl)cnn3c2)cn1` [Example 339, 3-chloro-6-(1-methyl-1H-pyrazol-4-yl)-4-(6-(pyrrolidin-1-yl)pyridin-3-yl)pyrazolo[1,5-a]pyridine], 3700 nM. For `Cn1cc(-c2cc(-c3ccc(N4CCN(C(=O)C5(c6ccc(Cl)cc6)CC5)CC4)nc3)c3c(C#N)cnn3c2)cn1` [Example 341, 4-(6-(4-(1-(4-chlorophenyl)cyclopropanecarbonyl)piperazin-1-yl)pyridin-3-yl)-6-(1-methyl-1H-pyrazol-4-yl)pyrazolo[1,5-a]pyridine-3-carbonitrile] the value was 237 nM; for `Cn1cc(-c2cc(-c3ccc(N4CCN(C(=O)C5(c6ccccc6)CCOCC5)CC4)nc3)c3c(C#N)cnn3c2)cn1` [Example 342, 6-(1-methyl-1H-pyrazol-4-yl)-4-(6-(4-(4-phenyltetrahydro-2H-pyran-4-carbonyl)piperazin-1-yl)pyridin-3-yl)pyrazolo[1,5-a]pyridine-3-carbonitrile], 4750 nM. To `Cn1cc(-c2cc(-c3ccc(N4CCN(C(=O)C5(c6ccc(Cl)cc6Cl)CC5)CC4)nc3)c3c(C#N)cnn3c2)cn1` [Example 343, 4-(6-(4-(1-(2,4-dichlorophenyl)cyclopropanecarbonyl)piperazin-1-yl)pyridin-3-yl)-6-(1-methyl-1H-pyrazol-4-yl)pyrazolo[1,5-a]pyridine-3-carbonitrile] belongs 1660 nM.
